Assay results: ChEMBL document CHEMBL6182854, “Design, synthesis and biological evaluation of WEE1 degraders via HSP90-mediated targeting chimeras for target therapy of acute myeloid leukemia” (Eur J Med Chem, 2025)
Each block holds one molecule with its values, some of them ahead of it. Activity calls are given as the source filed them. The calls are words filed in the database; no cut-off is given here.

Tests used:
[1] = test system: MV4-11; experiment: Antiproliferative activity against human MV4-11 cells assessed as cell viability incubated for 72 hrs by CCK-8 assay; type: functional, cell-based; details: MV4-11, 72 h
[2] = biological target: Heat shock protein HSP 90-alpha (Homo sapiens, UniProt P07900); experiment: Inhibition of N-terminal HSP90alpha (unknown origin) ATPase activity incubated for 3 hrs by fluorescence polarization assay
[3] = test system: MV4-11; experiment: HEMTAC activity against HSP90/WEE1 in human MV4-11 cells assessed as induction of WEE1 degradation at 10 uM incubated for 12 hrs by Western blotting analysis; type: cell-based
[4] = test system: MV4-11; experiment: HEMTAC activity at HSP90/WEE1 in human MV4-11 cells assessed as induction of WEE1 degradation at 0.1 uM incubated for 12 hrs by Western blotting analysis; type: cell-based
[5] = test system: MV4-11; experiment: Upregulation of WEE1 mRNA expression in human MV4-11 cells incubated for 12 hrs by qRT-PCR analysis; type: functional, cell-based; details: dose 1-10 µM
[6] = test system: MV4-11; experiment: Induction of cell cycle arrest in human MV4-11 cells assessed as accumulation of cells at G2/M phase incubated for 72 hrs by PI staining based flow cytometry; type: functional; details: dose 30.0 µM
[7] = test system: MV4-11; experiment: HEMTAC activity against HSP90/AKT in human MV4-11 cells assessed as induction of AKT degradation at 0.1 uM incubated for 12 hrs by Western blotting analysis; type: cell-based
[8] = test system: MV4-11; experiment: Induction of cell cycle arrest in human MV4-11 cells assessed as accumulation of cells at G2/M phase at 30 nM incubated for 72 hrs by PI staining based flow cytometry; type: functional
[9] = Cytotoxicity against human PBMC cells assessed as reduction in cell viability up to 1000 nM incubated for 72 hrs by CCK-8 assay; type: toxicity, cell-based; details: 1 µM
[10] = test system: Primary acute myeloid leukemic cell; experiment: Antitumor activity against patient derived human Primary acute myeloid leukemic cell xenografted in female NOD/SCID mouse assessed as decrease in huCD45+ cells in spleen at 10 mg/kg administered via tail vein and measured after 4 weeks by flow cytometric analysis; type: functional, organism-based
[11] = Antitumor activity against patient derived human Primary acute myeloid leukemic cell xenografted in female NOD/SCID mouse assessed as decrease in huCD45+ cells in bone marrow at 10 mg/kg administered via tail vein and measured after 4 weeks by flow cytometric analysis relative to control; type: functional; set-up: scale not given: the % may be the effect or the level left
[12] = Antiproliferative activity against patient derived human Primary acute myeloid leukemic cell assessed as inhibition of cell growth incubated for 72 hrs by CCK-8 assay; type: functional, cell-based
[13] = Toxicity in female NOD/SCID mouse xenografted with patient derived human Primary acute myeloid leukemic cell assessed as increase in body weight at 10 mg/kg administered via tail vein and measured after 4 weeks; type: organism-based; details: in vivo, iv, 672 h
[14] = test system: Primary acute myeloid leukemic cell; experiment: Antitumor activity against patient derived human Primary acute myeloid leukemic cell xenografted in female NOD/SCID mouse assessed as reduction in splenomegaly at 10 mg/kg administered via tail vein and measured after 4 weeks; type: functional, organism-based
[15] = Toxicity in female NOD/SCID mouse xenografted with patient derived human Primary acute myeloid leukemic cell assessed as heart damage at 10 mg/kg administered via tail vein by H and E staining based optical microscopic analysis; type: organism-based; details: in vivo, iv
[16] = Toxicity in female NOD/SCID mouse xenografted with patient derived human Primary acute myeloid leukemic cell assessed as liver damage at 10 mg/kg administered via tail vein by H and E staining based optical microscopic analysis; type: organism-based; details: in vivo, iv
[17] = Toxicity in female NOD/SCID mouse xenografted with patient derived human Primary acute myeloid leukemic cell assessed as spleen damage at 10 mg/kg administered via tail vein by H and E staining based optical microscopic analysis; type: organism-based; details: in vivo, iv
[18] = Toxicity in female NOD/SCID mouse xenografted with patient derived human Primary acute myeloid leukemic cell assessed as lung damage at 10 mg/kg administered via tail vein by H and E staining based optical microscopic analysis; type: organism-based; details: in vivo, iv
[19] = Toxicity in female NOD/SCID mouse xenografted with patient derived human Primary acute myeloid leukemic cell assessed as lung damage at 3 mg/kg administered via tail vein by H and E staining based optical microscopic analysis; type: organism-based; details: in vivo, iv
[20] = Toxicity in male BALB/C mouse assessed as myelosuppression by measuring platelet level at 10 mg/kg administered via tail vein and measured on day 3; type: organism-based; details: in vivo, iv, 72 h, time 3 day
[21] = biological target: Cyclin-dependent kinase 1 (Homo sapiens) (UniProt P06493); experiment: Inhibition of CDK1 phosphorylation in human MV4-11 cells; type: cell-based
Cyclin-dependent kinase 1 (Homo sapiens), sequence (P06493 whole entry, looked up): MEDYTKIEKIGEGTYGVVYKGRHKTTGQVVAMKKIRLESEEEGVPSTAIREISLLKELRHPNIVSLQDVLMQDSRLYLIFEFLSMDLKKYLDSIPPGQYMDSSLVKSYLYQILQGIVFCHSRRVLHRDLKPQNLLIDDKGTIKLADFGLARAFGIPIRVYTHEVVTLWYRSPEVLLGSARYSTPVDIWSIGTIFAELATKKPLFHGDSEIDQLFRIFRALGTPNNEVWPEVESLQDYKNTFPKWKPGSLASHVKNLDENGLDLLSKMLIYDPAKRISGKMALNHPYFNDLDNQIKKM

[22] = test system: MV4-11; experiment: Induction of cell cycle arrest in human MV4-11 cells assessed as accumulation of cells at G2/M phase at 100 nM incubated for 72 hrs by PI staining based flow cytometry; type: functional
[23] = test system: Primary acute myeloid leukemic cell; experiment: Antitumor activity against patient derived human Primary acute myeloid leukemic cell xenografted in female NOD/SCID mouse assessed as decrease in huCD45+ cells in bone marrow at 3 mg/kg administered via tail vein in presence of STA9090 and measured after 4 weeks by flow cytometric analysis; type: functional, organism-based
[24] = test system: Primary acute myeloid leukemic cell; experiment: Antitumor activity against patient derived human Primary acute myeloid leukemic cell xenografted in female NOD/SCID mouse assessed as decrease in huCD45+ cells in bone marrow at 5 mg/kg administered via tail vein and measured after 4 weeks by flow cytometric analysis; type: functional, organism-based
[25] = test system: Primary acute myeloid leukemic cell; experiment: Antitumor activity against patient derived human Primary acute myeloid leukemic cell xenografted in female NOD/SCID mouse assessed as decrease in huCD45+ cells in bone marrow at 5 mg/kg administered via tail vein and measured after 4 weeks in presence of STA9090 by flow cytometric analysis; type: functional, organism-based
[26] = test system: Primary acute myeloid leukemic cell; experiment: Antitumor activity against patient derived human Primary acute myeloid leukemic cell xenografted in female NOD/SCID mouse assessed as decrease in huCD45+ cells in bone marrow at 3 mg/kg administered via tail vein in presence of AZD1775 and measured after 4 weeks by flow cytometric analysis; type: functional, organism-based
[27] = test system: Primary acute myeloid leukemic cell; experiment: Antitumor activity against patient derived human Primary acute myeloid leukemic cell xenografted in female NOD/SCID mouse assessed as decrease in huCD45+ cells in bone marrow at 5 mg/kg administered via tail vein and measured after 4 weeks in presence of AZD1775 by flow cytometric analysis; type: functional, organism-based
[28] = test system: Primary acute myeloid leukemic cell; experiment: Antitumor activity against patient derived human Primary acute myeloid leukemic cell xenografted in female NOD/SCID mouse assessed as decrease in huCD45+ cells in spleen at 3 mg/kg administered via tail vein and measured after 4 weeks by flow cytometric analysis; type: functional, organism-based
[29] = Toxicity in female NOD/SCID mouse xenografted with patient derived human Primary acute myeloid leukemic cell assessed as increase in body weight at 3 mg/kg administered via tail vein and measured after 4 weeks; type: organism-based; details: in vivo, iv, 672 h
[30] = test system: Primary acute myeloid leukemic cell; experiment: Antitumor activity against patient derived human Primary acute myeloid leukemic cell xenografted in female NOD/SCID mouse assessed as reduction in splenomegaly at 3 mg/kg administered via tail vein and measured after 4 weeks; type: functional, organism-based
[31] = Toxicity in female NOD/SCID mouse xenografted with patient derived human Primary acute myeloid leukemic cell assessed as heart damage at 3 mg/kg administered via tail vein by H and E staining based optical microscopic analysis; type: organism-based; details: in vivo, iv
[32] = Toxicity in female NOD/SCID mouse xenografted with patient derived human Primary acute myeloid leukemic cell assessed as liver damage at 3 mg/kg administered via tail vein by H and E staining based optical microscopic analysis; type: organism-based; details: in vivo, iv
[33] = Toxicity in female NOD/SCID mouse xenografted with patient derived human Primary acute myeloid leukemic cell assessed as spleen damage at 3 mg/kg administered via tail vein by H and E staining based optical microscopic analysis; type: organism-based; details: in vivo, iv
[34] = Toxicity in female NOD/SCID mouse xenografted with patient derived human Primary acute myeloid leukemic cell assessed as kidney damage at 10 mg/kg administered via tail vein by H and E staining based optical microscopic analysis; type: organism-based; details: in vivo, iv
[35] = Toxicity in male BALB/C mouse assessed as myelosuppression by measuring leukocytes level at 10 mg/kg administered via tail vein and measured on day 3; type: organism-based; details: in vivo, iv, 72 h, time 3 day
[36] = Toxicity in male BALB/C mouse assessed as myelosuppression by measuring neutrophil level at 10 mg/kg administered via tail vein and measured on day 3; type: organism-based; details: in vivo, iv, 72 h, time 3 day

Compound: C=CCn1c(=O)c2cnc(Nc3ccc(N4CCN(CCCNC(=O)c5noc(-c6cc(C(C)C)c(O)cc6O)c5-c5ccc(CN6CCOCC6)cc5)CC4)cc3)nc2n1-c1cccc(C(C)(C)O)n1
IC50 [1]: 8.03 nM
IC50 [2]: 13.9 nM
Activity [3]: Active
Activity [4]: Active
Activity [5]: Active
Activity [6]: Dose-dependent-effect
Activity [7]: Minimal_effect
Activity [8]: Active
Activity [9]: Non-toxic
Activity [10]: Active
Activity [11]: >70%
IC50 [12]: 40.5 nM
Activity [13]: Non-toxic
Activity [14]: Active
Activity [15]: Non-toxic
Activity [16]: Non-toxic
Activity [17]: Non-toxic
Activity [18]: Non-toxic
Activity [19]: Non-toxic
Activity [20]: Non-toxic
inhibition [21]: Active

Compound: C=CCn1c(=O)c2cnc(Nc3ccc(N4CCN(CCCNC(=O)CCC(=O)Nc5ccc6c(c5)CCN6C(=O)c5cc(C(C)C)c(O)cc5O)CC4)cc3)nc2n1-c1cccc(C(C)(C)O)n1
IC50 [1]: 47.6 nM
IC50 [2]: 18.7 nM
Activity [3]: Active

Compound: CC(C)c1cc(C(=O)N2Cc3ccc(CN4CCN(C)CC4)cc3C2)c(O)cc1O [ONALESPIB]
IC50 [1]: 6.13 nM
IC50 [2]: 9.89 nM

Compound: C=CCn1c(=O)c2cnc(Nc3ccc(N4CCN(CCNC(=O)CCC(=O)Nc5ccc6c(c5)CCN6C(=O)c5cc(C(C)C)c(O)cc5O)CC4)cc3)nc2n1-c1cccc(C(C)(C)O)n1
IC50 [1]: 13.1 nM
Activity [3]: Active

Compound: C=CCn1c(=O)c2cnc(Nc3ccc(N4CCN(CCCCNC(=O)CCC(=O)Nc5ccc6c(c5)CCN6C(=O)c5cc(C(C)C)c(O)cc5O)CC4)cc3)nc2n1-c1cccc(C(C)(C)O)n1
IC50 [1]: 153 nM
Activity [3]: Active

Compound: C=CCn1c(=O)c2cnc(Nc3ccc(N4CCN(CCCCNC(=O)c5noc(-c6cc(C(C)C)c(O)cc6O)c5-c5ccc(CN6CCOCC6)cc5)CC4)cc3)nc2n1-c1cccc(C(C)(C)O)n1
IC50 [1]: 45 nM
Activity [3]: Active

Compound: C=CCn1c(=O)c2cnc(Nc3ccc(N4CCN(CCNC(=O)c5noc(-c6cc(C(C)C)c(O)cc6O)c5-c5ccc(CN6CCOCC6)cc5)CC4)cc3)nc2n1-c1cccc(C(C)(C)O)n1
IC50 [1]: 99.2 nM
Activity [3]: Active

Compound: C=CCn1c(=O)c2cnc(Nc3ccc(N4CCN(C)CC4)cc3)nc2n1-c1cccc(C(C)(C)O)n1 [ADAVOSERTIB]
IC50 [1]: 67.5 nM
Activity [3]: inactive
Activity [5]: inactive
Activity [22]: Active
Activity [23]: inactive
Activity [24]: inactive
Activity [25]: inactive

Compound: CCNC(=O)c1noc(-c2cc(C(C)C)c(O)cc2O)c1-c1ccc(CN2CCOCC2)cc1 [LUMINESPIB]
IC50 [1]: 1.98 nM
Activity [6]: Active

Compound: CC(C)c1cc(-c2n[nH]c(=O)n2-c2ccc3c(ccn3C)c2)c(O)cc1O [GANETESPIB]
IC50 [1]: 1.53 nM
Activity [6]: Active
Activity [26]: inactive
Activity [24]: inactive
Activity [27]: inactive

Compound: C=CCn1c(=O)c2cnc(Nc3ccc(N4CCN(CCCCCNC(=O)c5noc(-c6cc(C(C)C)c(O)cc6O)c5-c5ccc(CN6CCOCC6)cc5)CC4)cc3)nc2n1-c1cccc(C(C)(C)O)n1
IC50 [1]: 24.2 nM
Activity [3]: Active

IC50 [2]: 16.8 nM
inhibition [21]: Active
Compound: C=CCn1c(=O)c2cnc(Nc3ccc(N4CCN(CCCCNC(=O)CN5CCN(Cc6ccc(-n7c(C(=O)NCC)nnc7-c7cc(C(C)C)c(O)cc7O)cc6)CC5)CC4)cc3)nc2n1-c1cccc(C(C)(C)O)n1
Activity [3]: Active
Activity [4]: Active
Activity [5]: Active
Activity [6]: Dose-dependent-effect
Activity [7]: Minimal_effect
Activity [8]: Active
Activity [9]: Non-toxic
Activity [28]: Active
Activity [29]: Non-toxic
Activity [30]: Active
Activity [31]: Non-toxic
Activity [32]: Non-toxic
Activity [33]: Non-toxic
Activity [19]: Non-toxic
Activity [34]: Non-toxic
Activity [20]: Non-toxic
Activity [35]: Non-toxic
Activity [36]: Non-toxic

Compound: C=CCn1c(=O)c2cnc(Nc3ccc(N4CCN(CCNC(=O)CN5CCN(Cc6ccc(-n7c(C(=O)NCC)nnc7-c7cc(C(C)C)c(O)cc7O)cc6)CC5)CC4)cc3)nc2n1-c1cccc(C(C)(C)O)n1
IC50 [1]: 13.1 nM
Activity [3]: Active

Compound: C=CCn1c(=O)c2cnc(Nc3ccc(N4CCN(CCCCCNC(=O)CN5CCN(Cc6ccc(-n7c(C(=O)NCC)nnc7-c7cc(C(C)C)c(O)cc7O)cc6)CC5)CC4)cc3)nc2n1-c1cccc(C(C)(C)O)n1
IC50 [1]: 9.66 nM
Activity [3]: Active

Compound: C=CCn1c(=O)c2cnc(Nc3ccc(N4CCN(CCCCCNC(=O)CCC(=O)Nc5ccc6c(c5)CCN6C(=O)c5cc(C(C)C)c(O)cc5O)CC4)cc3)nc2n1-c1cccc(C(C)(C)O)n1
IC50 [1]: 38.4 nM
Activity [3]: Active
